≈ marks a conversion by molar mass, not a printed value. Read-outs that look alike come from different tables or passages of the source.
Columns and labels:
Type in all cases: cell-based
[1] = tested on: Cephalothin(CET)sensitive E. coli (2 strains), K. pneumoniae (1) and P. mirabilis (2); assay: MIC by two-fold serial agar dilution in Mueller-Hinton agar, Gn-Ia; conditions: read-out: Geometric Mean of MIC
Method: (§1) In the primary evaluation of the compounds of this invention, the Minimum Inhibitory Concentrations (MIC's) of the compounds were determined by the two-fold serial agar dilution method in Mueller-Hinton agar against 32 strains of test organisms in six groups.
GnIa: Cephalothin(CET)sensitive E. coli (2 strains), K. pneumoniae (1) an […]

P. aeruginosa = assay: MIC by two-fold serial agar dilution in Mueller-Hinton agar, Gn-III; conditions: Pseudomonas aeruginosa, read-out: Geometric Mean of MIC
Method: as §1

[2] = tested on: M. morganii (1), E. cloacae (2) and S. marcescens (2); assay: MIC by two-fold serial agar dilution in Mueller-Hinton agar, Gn-II; conditions: Gn-II, 5 strains; for MIC: read-out: Geometric Mean of MIC
Method: as §1
GnII: M. morganii (1), E. cloacae (2) and S. marcescens (2)

[3] = tested on: Penicillin(PC)sensitive S. aureus; assay: MIC by two-fold serial agar dilution in Mueller-Hinton agar, Gp-Ia; conditions: for MIC: Staphylococcus aureus
Method: as §1
Gp-Ia: Penicillin(PC)sensitive S. aureus

[4] = tested on: CETresistant E. coli (3) and K. pneumoniae (2); assay: MIC by two-fold serial agar dilution in Mueller-Hinton agar, Gn-Ib; conditions: for MIC: Escherichia coli, read-out: Geometric Mean of MIC
Method: as §1
GnIb: CETresistant E. coli (3) and K. pneumoniae (2)

PCresistant S. aureus = assay: MIC by two-fold serial agar dilution in Mueller-Hinton agar, Gp-Ib; conditions: for MIC: Staphylococcus aureus, read-out: Geometric Mean of MIC
Method: as §1
GpIb: PCresistant S. aureus

[5] = Gn-Ib, 5 strains, CET-resistant
[6] = Gp-Ib, 5 strains, PC-resistant S. aureus
[7] = Gn-III, 7 strains, P. aeruginosa
[8] = Gp-Ia, 5 strains, PC-sensitive S. aureus, read-out: Geometric Mean of MIC
[9] = Gn-Ia, 5 strains, CET-sensitive

SMILES | MIC [1] [µg/mL] | MIC (P. aeruginosa) [µg/mL] | Geometric Mean of MIC [2] [µg/mL] | Geometric Mean of MIC ([3]; Gp-Ia, 5 strains, PC-sensitive S. aureus) [µg/mL] | Geometric Mean of MIC [4, 5] [µg/mL] | Geometric Mean of MIC (PCresistant S. aureus; [6]) [µg/mL] | MIC (P. aeruginosa; [7]) [µg/mL] | MIC [2] [µg/mL] | MIC [3, 8] [µg/mL] | MIC [4, 5] [µg/mL] | MIC (PCresistant S. aureus) [µg/mL] | MIC [1, 9] [µg/mL] | MIC (PCresistant S. aureus; [6]) [µg/mL] | MIC ([3]; read-out: Geometric Mean of MIC, Gp-Ia, 5 strains, PC-sensitive S. aureus) [µg/mL] | MIC [4] [µg/mL]
CO/N=C(\C(=O)NC1C(=O)N2C(C(=O)[O-])=C(C[N+]3(C)CCSC3)CSC12)c1csc(N)n1 (single isomer, unassigned) [13 Isomer B] | 0.029 (≈ 0.0582 µM) | 2.5 (≈ 5.01 µM) | 0.13 | 0.72 | 0.13 | 1.6 |  |  |  |  |  |  |  |  | 
CO/N=C(\C(=O)NC1C(=O)N2C(C(=O)[O-])=C(C[N+]34CCC(CC3)CC4)CS[C@H]12)c1csc(N)n1 (stereo partly drawn) [Example 3, 7-[(Z)-2-(2-Aminothiazol-4-yl)-2-methoxyiminoacetamido]-3-(1-quinuclidinio)methyl-3-cephem-4-carboxylate] | 0.04 (≈ 0.079 µM) |  |  |  |  |  | 2.8 (≈ 5.53 µM) | 0.84 (≈ 1.66 µM) | 0.77 (≈ 1.52 µM) | 0.14 (≈ 0.276 µM) | 2.5 (≈ 4.93 µM) |  |  |  | 
CO/N=C(\C(=O)NC1C(=O)N2C(C(=O)[O-])=C(C[N+]3(C)CCSCC3)CS[C@H]12)c1csc(N)n1 (stereo partly drawn) [Example 20, 7-[(Z)-2-(2-Aminothiazol-4-yl)-2-methoxyiminoacetamido]-3-(4-methylthiomorpholinio)methyl-3-cephem-4-carboxylate] |  |  |  |  |  |  | 3.7 (≈ 7.22 µM) | 0.25 (≈ 0.488 µM) | 1.2 (≈ 2.34 µM) | 0.25 (≈ 0.488 µM) |  | 0.064 (≈ 0.125 µM) | 4.1 (≈ 8 µM) |  | 
C=CC[N+]1(CC2=C(C(=O)[O-])N3C(=O)C(NC(=O)/C(=N\OC)c4csc(N)n4)[C@H]3SC2)CCCC1 (stereo partly drawn) [Example 21, 7-[(Z)-2-(2-Aminothiazol-4-yl)-2-methoxyiminoacetamido]-3-(N-allylpyrrolidinio)methyl-3-cephem-4-carboxylate] |  |  |  |  |  |  | 6.5 (≈ 12.8 µM) | 0.18 (≈ 0.355 µM) |  |  |  | 0.045 (≈ 0.0888 µM) | 2.9 (≈ 5.72 µM) | 1.1 (≈ 2.17 µM) | 0.15 (≈ 0.296 µM)
C#CCO/N=C(\C(=O)NC1C(=O)N2C(C(=O)[O-])=C(C[N+]3(C)CCCC3)CSC12)c1csc(N)n1 (stereo not drawn) [Example 18, 7-[(Z)-2-(2-Aminothiazol-4-yl)-2-propargyloxyiminoacetamido]-3-(1-methyl-1-pyrrolidiniomethyl)-3-cephem-4-carboxylate] |  |  |  |  |  |  | 4 (≈ 7.93 µM) | 0.36 (≈ 0.713 µM) | 0.77 (≈ 1.53 µM) |  |  | 0.061 (≈ 0.121 µM) | 2.2 (≈ 4.36 µM) |  | 0.32 (≈ 0.634 µM)

— US4525473A, “Cephalosporins” (Bristol-Myers Company, priority 1983, dated 1985)
